Experimental data: US9221790B2, “Benzamide derivatives” (Dong-A Pharm. Co., Ltd., priority 2010, dated 2015)
Like-named read-outs stand apart in the source and are kept apart here.

Key:
hERG potassium channel = hERG potassium channel (Homo sapiens (Human), UniProt Q12809); experiment: Binding affinity for hERG potassium channel ([H3]-Astemizole radioligand, HEK-293 membrane homogenates, MDS Pharma Service); conditions: probe [H3]-Astemizole (1.5 nM), 10 μM test material, 1.5 nM [H3]-Astemizole, hERG K+ channel, HEK-293 membranes
Procedure: The binding affinity of the compounds for the human ether-a-go-go-related gene (hERG) potassium (K+) channel which is associated with cardiac QT prolongation was assayed in MDS Pharma Service (Catalog No. 265900). Membrane homogenates were obtained from mammalian HEK-293 cells expressing the hERG potassium channel and then used in the binding assay experiment. For the binding assay experiment, the membrane homogenates were respectively mixed and incubated with 10 μM of test materials and 1.5 nM of [H3]-Astemizole (Perkin Elmer). After the incubation was completed, the radioactivity bound to the hERG K+ channel was counted. The affinity of each test material for the hERG K+ channel was calculated from % inhibition of specific binding of the radioligand to the hERG K+ channel, resulting from the action of the test material.

human 5-HT4 receptor = human 5-HT4 receptor (Homo sapiens (Human), UniProt Q13639); experiment: Binding affinity of compounds for 5-HT4 receptor ([H3]-GR113808 radioligand, COS-7 membrane homogenates)
Procedure: The binding affinity of the compounds for a human 5-HT4 receptor was assayed according to the method as disclosed in the literature [Wyngaert et al., Journal of Neurochemistry, (1997) 69, 1810-1819]. For this purpose, COS-7 cells expressing the human 5-HT4 receptor were constructed and homogenized to obtain membrane homogenates which were then used in binding assay experiments. For the binding assay, the membrane homogenates were respectively mixed and incubated with different concentrations of test materials and [H3]-GR113808 (Amersham Biosciences). The concentrations of the individual test materials were set to 4 μM, 1 μM, 0.25 μM, and 0.0625 μM, respectively, and the concentration of [H3]-GR113808 was set to 0.595 nM. After the incubation was completed, the reaction products were collected in GF/B glass fiber filters using a Packard cell harvester, and the bound radioactivity was then determined using a liquid cell scintillation counter (Packard TopCount NXT™, Perkin Elmer). Specific binding of the radioligand to the 5-HT4 receptor was calculated by subtracting the non-specific binding of the radioligand from the total radioligand binding. IC50 was calculated from % inhibition of specific binding of the radioligand to the 5-HT4 receptor, with respect to varying concentrations of the test materials.

ICR mice = experiment: Acute oral toxicity of compounds in mice; format: in vivo; conditions: male ICR mice, single oral dose 1 g/10 mL/kg, 2 weeks observation
Procedure: 200 mg of each of Example compounds was triturated in 1% hydroxypropyl methyl-cellulose, and the resulting triturations were then orally administered to 5-week old male ICR mice (20 g±2 g, n=5) at a dose of 1 g/10 mL/kg. The minimum lethal dose (MLD, mg/kg) of the individual compounds was investigated by the observation of the mortality, body weight, clinical symptoms and the like of animals over the entire experimental period of 2 weeks.

SD rats = experiment: Evaluation of gastric emptying; format: in vivo, rat; conditions: 5 mg/kg oral, semi-solid diet 1 hour after dosing, stomach extracted 50 minutes after meal
Procedure: Evaluation of gastric emptying was carried out based on the method described in Iwanaga Y, et al., Jpn J Pharmacol. 1991, 56(3), 261-269. As experimental animals, SD rats (240 to 250 g) were used and divided into groups (n=5 to 6). On the day prior to the experiment, animals were fasted for 18 hours. Test materials were formulated as suspensions thereof in 0.5% (w/v) methylcellulose and were orally administered to the animals at a dose of 5 mg/kg. 1 hour after the oral administration of the test materials, 2 mL of a semi-solid diet was orally administered to the animals. The semi-solid diet was in the form of porridge formulated by pulverizing a standard solid diet together with distilled water in a mixer. 50 minutes after the administration of the semi-solid diet, the animals were sacrificed by cervical dislocation. After carrying out an abdominal incision, the stomach was extracted from the animals. The weight of diet remaining in the stomach was measured to thereby determine the gastric emptying rate (%). The gastric emptying rate was calculated according to the following equation.
Gastric Emptying Rate (%)=(1−X/Y)*100
X: Weight of diet remaining in the stomach extracted 50 minutes after administration of meal
Y: Weight of diet remaining in the stomach extracted immediately after administration of meal

[1] = inhibition of specific binding of 0.595 nM [H3]-GR113808 to human 5-HT4 receptor, COS-7 membranes, read-out: IC50

Sequence of human 5-HT4 receptor (Q13639 whole entry): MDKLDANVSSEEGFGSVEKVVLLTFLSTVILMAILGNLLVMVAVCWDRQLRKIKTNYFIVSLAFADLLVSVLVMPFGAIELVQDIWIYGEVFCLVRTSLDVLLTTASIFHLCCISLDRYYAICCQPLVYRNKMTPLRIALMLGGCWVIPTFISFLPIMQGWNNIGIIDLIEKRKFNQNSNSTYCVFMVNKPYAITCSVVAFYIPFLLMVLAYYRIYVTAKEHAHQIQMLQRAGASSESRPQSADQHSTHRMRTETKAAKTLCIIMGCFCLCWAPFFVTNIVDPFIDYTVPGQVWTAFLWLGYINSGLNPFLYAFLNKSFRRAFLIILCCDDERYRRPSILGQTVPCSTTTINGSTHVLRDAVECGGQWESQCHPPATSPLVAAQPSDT
Sequence of hERG potassium channel (Q12809 whole entry): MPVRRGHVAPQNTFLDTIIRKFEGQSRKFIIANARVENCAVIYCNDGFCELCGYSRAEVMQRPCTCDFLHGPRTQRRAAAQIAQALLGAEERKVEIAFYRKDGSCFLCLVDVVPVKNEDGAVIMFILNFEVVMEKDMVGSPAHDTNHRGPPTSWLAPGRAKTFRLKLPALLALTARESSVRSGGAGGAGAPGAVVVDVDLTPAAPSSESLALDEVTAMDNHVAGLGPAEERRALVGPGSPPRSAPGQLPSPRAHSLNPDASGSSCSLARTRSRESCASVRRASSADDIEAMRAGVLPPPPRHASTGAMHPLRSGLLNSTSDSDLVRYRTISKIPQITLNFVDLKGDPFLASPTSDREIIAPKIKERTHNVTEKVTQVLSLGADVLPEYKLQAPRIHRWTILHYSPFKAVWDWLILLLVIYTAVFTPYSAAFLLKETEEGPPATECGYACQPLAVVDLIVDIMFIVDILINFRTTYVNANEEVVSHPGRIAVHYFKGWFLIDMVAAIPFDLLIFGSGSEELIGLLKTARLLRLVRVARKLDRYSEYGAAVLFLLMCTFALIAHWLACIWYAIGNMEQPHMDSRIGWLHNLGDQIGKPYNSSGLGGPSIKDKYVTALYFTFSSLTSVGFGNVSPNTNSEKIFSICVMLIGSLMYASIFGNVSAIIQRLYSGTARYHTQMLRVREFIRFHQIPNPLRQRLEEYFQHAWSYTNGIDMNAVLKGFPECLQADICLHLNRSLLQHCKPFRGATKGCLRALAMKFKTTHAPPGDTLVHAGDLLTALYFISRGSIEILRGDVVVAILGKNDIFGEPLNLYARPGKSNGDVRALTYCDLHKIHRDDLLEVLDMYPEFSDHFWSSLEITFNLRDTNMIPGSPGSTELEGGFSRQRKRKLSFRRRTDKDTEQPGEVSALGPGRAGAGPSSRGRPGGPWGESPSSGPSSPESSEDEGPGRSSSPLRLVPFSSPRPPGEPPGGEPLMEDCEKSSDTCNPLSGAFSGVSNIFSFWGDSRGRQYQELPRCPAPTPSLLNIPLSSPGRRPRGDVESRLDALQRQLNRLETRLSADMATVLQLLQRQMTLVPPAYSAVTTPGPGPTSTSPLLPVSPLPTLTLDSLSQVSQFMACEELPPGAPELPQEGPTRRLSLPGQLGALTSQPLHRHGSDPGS

COc1cc(N)c(Cl)cc1C(=O)NCC1CCN(CCCn2cncn2)CC1 [Example 1, N-((1-(3-(1,2,4-triazol-1-yl)propyl)piperidin-4-yl)methyl)-4-amino-5-chloro-2-methoxybenzamide]
inhibition at 10 μM (hERG potassium channel): 1%
IC50 (human 5-HT4 receptor; [1]): 0.226 nM
Minimum lethal dose (MLD) (ICR mice): >1000 mg/kg
Gastric emptying rate (SD rats): 43.0%

COc1cc(N)c(Cl)cc1C(=O)NCC1CCN(CCCn2cnnn2)CC1 [Example 2, N-((1-(3-(tetrazol-1-yl)propyl)piperidin-4-yl)methyl)-4-amino-5-chloro-2-methoxybenzamide]
inhibition at 10 μM (hERG potassium channel): 4%
IC50 (human 5-HT4 receptor; [1]): 0.164 nM
Minimum lethal dose (MLD) (ICR mice): >1000 mg/kg
Gastric emptying rate (SD rats): 52.8%

COc1cc(N)c(Cl)cc1C(=O)NCC1CCN(CCCn2ccc3ccccc32)CC1 [Example 3, N-((1-(3-(indol-1-yl)propyl)piperidin-4-yl)methyl)-4-amino-5-chloro-2-methoxybenzamide]
IC50 (human 5-HT4 receptor; [1]): 0.039 nM
Minimum lethal dose (MLD) (ICR mice): >1000 mg/kg
Gastric emptying rate (SD rats): 45.2%

COc1cc(N)c(Cl)cc1C(=O)NCC1CCN(CCCn2ccnc2C)CC1 [Example 4, N-((1-(3-(2-methylimidazol-1-yl)propyl)piperidin-4-yl)methyl)-4-amino-5-chloro-2-methoxybenzamide]
inhibition at 10 μM (hERG potassium channel): 14%
IC50 (human 5-HT4 receptor; [1]): 0.229 nM
Minimum lethal dose (MLD) (ICR mice): >1000 mg/kg
Gastric emptying rate (SD rats): 46.4%

COc1cc(N)c(Cl)cc1C(=O)NCC1CCN(CCCCCn2ccc3ccccc32)CC1 [Example 5, N-((1-(5-(indol-1-yl)pentyl)piperidin-4-yl)methyl)-4-amino-5-chloro-2-methoxybenzamide]
IC50 (human 5-HT4 receptor; [1]): 0.005 nM
Minimum lethal dose (MLD) (ICR mice): >1000 mg/kg
Gastric emptying rate (SD rats): 52.0%

COc1cc(N)c(Cl)cc1C(=O)NCC1CCN(CCCCCn2ccnn2)CC1 [Example 6, N-((1-(5-(1,2,3-triazol-1-yl)pentyl)piperidin-4-yl)methyl)-4-amino-5-chloro-2-methoxybenzamide]
inhibition at 10 μM (hERG potassium channel): 8%
IC50 (human 5-HT4 receptor; [1]): 0.103 nM
Minimum lethal dose (MLD) (ICR mice): >1000 mg/kg
Gastric emptying rate (SD rats): 46.0%

COc1cc(N)c(Cl)cc1C(=O)NCC1CCN(CCCn2ccnn2)CC1 [Example 7, N-((1-(3-(1,2,3-triazol-1-yl)propyl)piperidin-4-yl)methyl)-4-amino-5-chloro-2-methoxybenzamide]
inhibition at 10 μM (hERG potassium channel): 7%
IC50 (human 5-HT4 receptor; [1]): 0.067 nM
Minimum lethal dose (MLD) (ICR mice): >1000 mg/kg
Gastric emptying rate (SD rats): 56.1%

COc1cc(N)c(Cl)cc1C(=O)NCC1CCN(CCCn2nccn2)CC1 [Example 8, N-((1-(3-(1,2,3-triazol-2-yl)propyl)piperidin-4-yl)methyl)-4-amino-5-chloro-2-methoxybenzamide]
inhibition at 10 μM (hERG potassium channel): 15%
IC50 (human 5-HT4 receptor; [1]): 0.182 nM
Minimum lethal dose (MLD) (ICR mice): >1000 mg/kg
Gastric emptying rate (SD rats): 49.1%

COc1cc(N)c(Cl)cc1C(=O)NCC1CCN(Cc2cccnc2)CC1 [Example 9, N-((1-(pyridin-3-ylmethyl)piperidin-4-yl)methyl)-4-amino-5-chloro-2-methoxybenzamide]
inhibition at 10 μM (hERG potassium channel): 6%
IC50 (human 5-HT4 receptor; [1]): 0.267 nM
Minimum lethal dose (MLD) (ICR mice): >1000 mg/kg
Gastric emptying rate (SD rats): 51.2%

COc1cc(N)c(Cl)cc1C(=O)NCC1CCN(Cc2cn(C)c3ccccc23)CC1 [Example 10, N-((1-((1-methylindol-3-yl)methyl)piperidin-4-yl)methyl)-4-amino-5-chloro-2-methoxybenzamide]
IC50 (human 5-HT4 receptor; [1]): 0.076 nM
Minimum lethal dose (MLD) (ICR mice): >1000 mg/kg
Gastric emptying rate (SD rats): 59.1%

COc1cc(N)c(Cl)cc1C(=O)NCC1CCN(Cc2ncc[nH]2)CC1 [Example 11, N-((1-(imidazol-2-ylmethyl)piperidin-4-yl)methyl)-4-amino-5-chloro-2-methoxybenzamide]
inhibition at 10 μM (hERG potassium channel): 21%
IC50 (human 5-HT4 receptor; [1]): 0.454 nM
Minimum lethal dose (MLD) (ICR mice): >1000 mg/kg
Gastric emptying rate (SD rats): 43.1%

COc1cc(N)c(Cl)cc1C(=O)NCC1CCN(Cc2cccn2C)CC1 [Example 12, N-((1-((1-methylpyrrol-2-yl)methyl)piperidin-4-yl)methyl)-4-amino-5-chloro-2-methoxybenzamide]
inhibition at 10 μM (hERG potassium channel): 32%
IC50 (human 5-HT4 receptor; [1]): 0.421 nM
Minimum lethal dose (MLD) (ICR mice): >1000 mg/kg
Gastric emptying rate (SD rats): 62.0%

COc1cc(N)c(Cl)cc1C(=O)NCC1CCN(Cc2ccc(F)cc2)CC1 [Example 13, N-((1-(4-fluorobenzyl)piperidin-4-yl)methyl)-4-amino-5-chloro-2-methoxybenzamide]
inhibition at 10 μM (hERG potassium channel): 52%
IC50 (human 5-HT4 receptor; [1]): 0.134 nM
Minimum lethal dose (MLD) (ICR mice): >1000 mg/kg
Gastric emptying rate (SD rats): 52.3%

COc1cc(N)c(Cl)cc1C(=O)NCC1CCN(Cc2ccc(O)cc2)CC1 [Example 14, N-((1-(4-hydroxybenzyl)piperidin-4-yl)methyl)-4-amino-5-chloro-2-methoxybenzamide]
inhibition at 10 μM (hERG potassium channel): 40%
IC50 (human 5-HT4 receptor; [1]): 0.375 nM
Minimum lethal dose (MLD) (ICR mice): >1000 mg/kg
Gastric emptying rate (SD rats): 42.1%

COc1cc(N)c(Cl)cc1C(=O)NCC1CCN(CCc2c[nH]c3ccccc23)CC1 [Example 15, N-((1-(2-(indol-3-yl)ethyl)piperidin-4-yl)methyl)-4-amino-5-chloro-2-methoxybenzamide]
IC50 (human 5-HT4 receptor): 0.002 nM
Minimum lethal dose (MLD) (ICR mice): >1000 mg/kg
Gastric emptying rate (SD rats): 41.3%
